Data published in the SangsterLogP compilation.

| SMILES | logP |
| --- | --- |
| NS(=O)(=O)c1cccc2cccnc12 | 0.42 |
| COc1ccccc1CO | 1.13 |
| O=[N+]([O-])/C=C/c1ccccc1 | 2.11 |
| O=C(CCNNC(=O)c1ccncc1)NCc1ccccc1 | 0.87 |
| CSc1ccccc1 | 2.74 |
| COc1ccc(OC)c(CC(C)N)c1 (stereo not given) | 1.72 |
| CCCCCO | 1.51 |
| O=[N+]([O-])c1ccc2c(c1)c([N+](=O)[O-])cc[n+]2[O-] | 0.9 |
| Nc1ccncc1 | 0.26 |
| O=[N+]([O-])c1ccc2ccc[n+]([O-])c2c1 | 0.36 |
| CNC(=O)Oc1cccc(N(C)C)c1 | 1.43 |
| CC(C(=O)O)c1ccc(-c2ccccc2)c(F)c1 (stereo not given) | 4.16 |
| O=C(O)c1ccc(Oc2ccccc2)cc1 | 3.91 |
| Nc1nc2c(ncn2[C@H]2C[C@H](O)[C@@H](CO)O2)c(=S)[nH]1 | -0.79 |
| Cc1ccc(C)c(O)c1 | 2.33 |
| CC(C)[N+](=O)[O-] | 0.93 |
| O=C(O)Cc1ccc(O)cc1 | 0.75 |
| OCCCc1ccccc1 | 1.88 |
| O=C(O)c1c(O)cccc1O | 2.2 |
| CC(O)Cn1cnc2c1c(=O)n(C)c(=O)n2C (stereo not given) | -0.77 |
| CCC(=O)O | 0.33 |
| CCCl | 1.43 |
| Cn1c([N+](=O)[O-])cnc1/C=C/c1ccnc(N)n1 | 0.85 |

| SMILES | logP |
| --- | --- |
| N#Cc1cccc(OCC(=O)O)c1 | 0.95 |
| CCC(C)n1nnc2ccccc21 (stereo not given) | 2.31 |
| CCCC(C)C1(CC)C(=O)NC(=O)NC1=O (stereo not given) | 2.1 |
| CC/C(=C(/CC)c1ccc(O)cc1)c1ccc(O)cc1 | 5.07 |
| NNC(=O)c1ccnc(F)c1 | -0.11 |
| O=C(c1ccccc1)c1ccc(O)cc1 | 3.07 |
| CSc1nnc(CCC(C)C)c(=O)n1N | 1.85 |
| CC1=c2[nH]c3c(c2CCN1)C=CC(=O)C=3 | 2.19 |
| Oc1c(Br)cc(Br)c(O)c1Br | 4.37 |
| Nc1nc(S)c2nc[nH]c2n1 | -0.07 |
| NC(=O)c1ncccc1O | 0.65 |
| CC1CCC(NC(=O)N(CCCl)N=O)CC1 (stereo not given) | 3.3 |
| COc1ccc(CC(C)N)cc1OC (stereo not given) | 1.2 |
| CCC1(CC)C(=O)NC(=O)NC1=O | 0.65 |
| NCCc1cccnc1 | -0.11 |
| CCCN(CCC)CCC | 2.79 |
| Nc1ncnc2c1ncn2[C@@H]1O[C@H](CO)C[C@H]1O | -0.61 |
| COc1ccc2[nH]ccc2c1 | 2.06 |
| O=[N+]([O-])c1ccc(N=C=S)cc1 | 3.62 |
| CC(=O)C(C#N)=NNc1ccc([N+](=O)[O-])cc1[N+](=O)[O-] | 3.4 |
| CC1=C(C(=O)Nc2ccccc2)SCCO1 | 2.14 |
| CNC(=O)Oc1ccccc1OC(C)C | 1.52 |
| CC(C)N | 0.26 |

| SMILES | logP |
| --- | --- |
| CCN(CC)N=O | 0.48 |
| O=C(O)c1cccc(F)c1 | 2.15 |
| Cc1c(C)c(C)c(C)c(C)c1C | 5.11 |
| N=c1[nH]c(=O)c2ncn([C@@H]3C=C[C@@H](CO)O3)c2[nH]1 | -1.21 |
| CCCCCCCCCCCC(=O)O | 4.6 |
| CNS(=O)(=O)c1ccc(N)cc1 | -0.01 |
| O=[N+]([O-])c1cccc2cccnc12 | 1.4 |
| N#Cc1ccc(OCC(=O)O)cc1 | 0.93 |
| COc1ccc(C(=O)O)cc1 | 1.96 |
| CC(C)Sc1nnc(C(C)C)c(=O)n1N | 2.06 |
| Nc1ccc(Oc2ccccc2)cc1 | 2.96 |
| Brc1cccnc1 | 1.6 |
| NC1=C(Cl)C(=O)c2ccccc2C1=O | 2.12 |
| Cc1cnc(NC(=O)C2=C(O)c3ccccc3S(=O)(=O)N2C)s1 | 3.43 |
| Cc1ccccc1C | 3.12 |
| Oc1cccc(O)c1 | 0.8 |
| CN(C)CCN1C(=O)c2ccccc2N(C)c2ccccc21 | 2.5 |
| CF | 0.51 |
| O=C1CCCC(=O)N1 | 1.9 |
| CCOC(=O)C(C#N)=NNc1cc(Cl)c(Cl)c(Cl)c1 | 5.03 |
| CN1C(C(=O)Nc2ccccn2)=C(O)c2ccccc2S1(=O)=O | 3.06 |
| CNC(=O)Oc1ccc(C)cc1 | 1.66 |
| Cc1ccc2ccccc2c1 | 3.86 |

| SMILES | logP |
| --- | --- |
| O=C(O)CCc1ccccc1 | 1.84 |
| NC(=O)CCCc1cccnc1 | -0.08 |
| Cc1cccc(S(N)(=O)=O)c1 | 0.85 |
| Oc1cccc2cccnc12 | 2.02 |
| Cc1cn([C@H]2C=C[C@@H](CO)O2)c(=O)[nH]c1=O | -0.72 |
| CC(=O)Nc1ccc(C(=O)O)cc1 | 1.31 |
| O=C(O)c1cccc(O)c1 | 1.5 |
| O=[N+]([O-])c1cccc(Cl)c1 | 2.46 |
| CCN(C)C | 0.7 |
| O=C1CNC(=O)N1 | -1.69 |
| OCc1cccc(O)c1 | 0.49 |
| CCCCNCCC | 2.12 |
| CSc1nnc(-c2ccccc2)c(=O)n1N | 1.66 |
| CCCCN | 0.97 |
| CC[C@H](C)N | 0.74 |
| Cc1cccc(C)c1C | 3.66 |
| Cc1ccccc1N(C)C | 2.85 |
| C=CCOc1cc(C(=O)O)ccc1N | 1.25 |
| O=C(NC(CO)C(O)c1ccc([N+](=O)[O-])cc1)C(F)F (stereo not given) | 0.42 |
| CC(C)C(=O)C(C#N)=NNc1cc(C(F)(F)F)ccc1Cl | 5.31 |
| Cc1ncc(CO)c(CO)c1O | -0.77 |
